# Results taken from patent publication US20230091671A1 (priority 2020, published 2023).
# Structures can show the parent of a compound that is named as a salt.
# How the values were obtained:
# [1] = cited from earlier work
# [2] = cited from earlier work; remark: listed apart in the source
# [3] = in vivo; cited from earlier work
# α1-AR 1D = biological target: T1, α1-AR 1D (Homo sapiens, UniProt P25100); format: binding
# T1 construct: expressed in transfected cells; host or cells: HEK-293
# T1 sequence (P25100 1-572): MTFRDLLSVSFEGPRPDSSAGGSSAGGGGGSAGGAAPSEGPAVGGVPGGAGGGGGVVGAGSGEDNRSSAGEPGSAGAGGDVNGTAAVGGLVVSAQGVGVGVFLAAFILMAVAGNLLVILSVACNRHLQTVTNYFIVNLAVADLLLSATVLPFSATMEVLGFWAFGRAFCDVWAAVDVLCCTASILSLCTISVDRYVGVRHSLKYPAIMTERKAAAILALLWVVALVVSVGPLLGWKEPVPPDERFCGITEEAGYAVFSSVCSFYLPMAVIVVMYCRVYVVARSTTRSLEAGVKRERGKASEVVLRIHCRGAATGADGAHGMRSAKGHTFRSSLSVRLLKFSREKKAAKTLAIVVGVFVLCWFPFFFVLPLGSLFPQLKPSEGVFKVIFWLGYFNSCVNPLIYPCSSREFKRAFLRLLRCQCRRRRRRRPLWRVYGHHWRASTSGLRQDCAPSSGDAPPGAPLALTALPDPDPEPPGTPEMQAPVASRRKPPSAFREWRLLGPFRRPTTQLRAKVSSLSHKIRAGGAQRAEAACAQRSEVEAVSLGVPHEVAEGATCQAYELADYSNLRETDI
# [4] = biological target: T2, 1A subtype (α-1 adrenergic receptor) (Homo sapiens, UniProt P35348); settings: cited from earlier work
# T2 sequence (P35348 1-466): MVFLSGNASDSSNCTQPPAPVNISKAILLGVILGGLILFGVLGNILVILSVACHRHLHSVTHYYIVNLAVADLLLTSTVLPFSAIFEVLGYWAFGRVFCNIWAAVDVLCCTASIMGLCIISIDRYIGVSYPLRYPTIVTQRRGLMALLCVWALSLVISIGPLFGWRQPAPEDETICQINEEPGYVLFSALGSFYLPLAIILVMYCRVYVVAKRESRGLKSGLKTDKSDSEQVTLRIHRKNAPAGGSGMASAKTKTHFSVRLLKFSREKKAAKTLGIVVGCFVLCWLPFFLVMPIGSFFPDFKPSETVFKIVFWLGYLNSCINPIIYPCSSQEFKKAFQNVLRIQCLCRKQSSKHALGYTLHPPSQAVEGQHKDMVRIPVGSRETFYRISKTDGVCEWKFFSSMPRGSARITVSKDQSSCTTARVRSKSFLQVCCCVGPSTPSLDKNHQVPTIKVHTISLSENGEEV
# [5] = system: VC and laryngeal muscles/laryngospasm; settings: rat model; cited from earlier work
# [6] = recommended single intravenous injection
# [7] = single intramuscular and intravenous doses
# [8] = subcutaneous injection of 10 mg
smiles,measurement,setting,value
"COc1cc2nc(N(C)CCCNC(=O)C3CCCO3)nc(N)c2cc1OC.Cl (racemic) [ALFUZOSIN, (R,S)-N-[3-[(4-amino-6,7-dimethoxy-2-quinazolinyl)methylamino]propyl]tetrahydro-2-furancarboxamide hydrochloride]",dizziness,[1]; clinical test subjects,6%
same,hypotension,[1]; clinical test subjects,0.4%
same,syncope,[1]; clinical test subjects,0.2%
"COc1cc2nc(N3CCN(C(=O)C4CCCO4)CC3)nc(N)c2cc1OC.Cl (racemic) [TERAZOSIN, (RS)-Piperazine,1-(4-amino-6,7-dimethoxy-2-quinazolinyl)-4-[(tetra-hydro-2-furanyl)carbonyl]-, monohydrochloride, dihydrate]",syncope,[1]; clinical test subjects,0.6%
same,postural hypotension,[1]; trial of 600 subjects,4%
"CCN1CC(CCN2CCOCC2)C(c2ccccc2)(c2ccccc2)C1=O (stereo not drawn) [Doxapram hydrochloride, 1-ethyl-4-[2-(4-morpholinyl)ethyl]-3,3-diphenyl-2-pyrrolidinone monohydrochloride, monohydrate]",duration of effect,[2]; [6],5 to 12 min
same,onset of respiratory stimulation,[2]; [6],20 to 40 s
same,time of peak effect,[2]; [6],1 to 2 min
"O=C(CCCN1CC=C(n2c(=O)[nH]c3ccccc32)CC1)c1ccc(F)cc1 [Droperidol, 1-[1-[3-(p-Fluorobenzoyl)propyl]-1,2,3,6-tetrahydro-4-pyridyl]-2-benzimidazolinone]",duration of the tranquilizing and sedative effects,"[2]; human, in vivo",two to four hours
same,persistence of alteration of alertness,"[2]; human, in vivo",as long as twelve hours
same,onset of action,[2]; [7],three to ten minutes
same,time until peak effect apparent,[2]; [7],up to thirty minutes
CCC(=O)C(CC(C)N(C)C)(c1ccccc1)c1ccccc1 (stereo not drawn) [Methadone],metabolism (enzymes / pathway),[3],"CYP3A4, CYP2B6 and CYP2D6"
NC[C@H](O)c1ccc(O)c(O)c1 [NE],affinity and potency at α1-AR 1D compared with other subtypes,α1-AR 1D,highest affinity and potency
CN1CCC[C@H]1c1cccnc1 [Nicotine],crossing of the blood brain barrier,[3],crosses the blood-brain barrier
same,elimination half-life in the body,[3],around two hours
same,half-life,[3],1 to 2 h
same,route of excretion,[3],primarily excreted in urine
same,time to reach the brain after inhalation,[3],10 to 20 s
"COc1cc2nc(N3CCN(C(=O)c4ccco4)CC3)nc(N)c2cc1OC.Cl [PRAZOSIN, 1-(4-amino-6,7-dimethoxy-2-quinazolinyl)-4-(2-furoyl) piperazine]","Syncope and symptoms of hypotension, share of subjects receiving",[1]; 1 mg BID/TID titrated up to 20 mg total QD,6-12%
"C[C@H](Cc1cc2c(c(C(N)=O)c1)N(CCCO)CC2)NCCOc1ccccc1OCC(F)(F)F [SILODOSIN, (3-Hydroxypropyl)-5-[(2R)-2-({2-[2-(2,2,2trifluoroethoxy)phenoxy]ethyl}amino)propyl]-2,3-dihydro-1H-indole-7-carboxamide]",Dizziness and orthostatic hypotension,"[1]; Study of 897 subjects, 8 mg QD",3%
same,subjects with syncope / subjects in study,"[1]; Study of 897 subjects, 8 mg QD",1/897
"CCOc1ccccc1OCCN[C@H](C)Cc1ccc(OC)c(S(N)(=O)=O)c1 [TAMSULOSIN, (-)-(R)-5-[2-[[2-(o-Ethoxyphenoxy)ethyl]amino]propyl]-2-methoxybenzenesulfon-amide, monohydrochloride]","incidence of hypotension, syncope, vertigo",[1]; Dose (0.4-0.8 mg QD),0.2%-0.6%
same,greater binding affinity at the 1A subtype over other α-1 antagonists,[4],12-30 times
"C=CCN1CC[C@]23c4c5ccc(O)c4O[C@H]2C(=O)CC[C@@]3(O)[C@H]1C5.Cl [naloxone, 17-Allyl-4,5α-epoxy-3,14-dihydroxymorphinan-6-one hydrochloride]",dose at which naloxone has an effect,[5],> 0.8 mg/kg
CC[C@@H]1C(=O)OC[C@@H]1Cc1cncn1C [pilocarpine HCl],salivation,[2]; [8],1 L
same,sweating,[2]; [8],0.5 to 1.0 L
